Converted amounts (≈) assume the structure as drawn. Counter-ions that a name gives are not always drawn.
Experiments:
[1] = tested on: Helicobacter pylori; assay: activity against Helicobacter pylori (MIC50), Columbia agar, growth period of 4 days; assay type: cell-based; settings: 96 h, approx. MIC 50 values, Columbia agar (Oxoid)
From the text: The compounds of the formula I were investigated with respect to their activity against Helicobacter pylori following the methodology described by Tomoyuki Iwahi et al. (Antimicrobial Agents and Chemotherapy, 1991, 490-496) using Columbia agar (Oxoid) and with a growth period of 4 days. The approx. MIC 50 values listed in Table A below resulted here for the compounds investigated (the stated numbers of the compounds agree with the example numbers in the description).

[2] = tested on: Helicobacter fells; assay: in vivo activity against Helicobacter fells in the mouse (elimination rate); settings: po, 96 h, administered orally at 3×50 mg/kg over the course of 4 days
Experimental: With respect to their in vivo activity against Helicobacter fells in the mouse, the compounds of the formula I were investigated following the methodology described by E. Dick-Hegedus and A. Lee (Scand. J. Gastroenterol. 1991, 26, 909-915). The substances were administered orally at 3×50 mg/kg over the course of 4 days. The elimination rates listed in Table A below resulted here for the compounds investigated: […]

| SMILES | MIC50 [1] [µg/mL] | responders at 50 mg/kg [2] [%] |
| --- | --- | --- |
| Cc1ccnc(SCc2nccc(SCCCSc3ccc4ncc([N+](=O)[O-])n4n3)c2C)n1 [Compound 25, 6-{3-[3-Methyl-2-(4-methyl-pyrimidin-2-ylsulfanylmethyl)-pyridin-4-ylsulfanyl]-propylsulfanyl}-3-nitroimidazo[1,2-b]pyridazine] | 0.05 (≈ 0.1 µM) | 100 |
| CN(CCSc1ccc2ncc([N+](=O)[O-])n2n1)c1ccnc(CSc2ncccn2)c1Cl [Compound 18] | 0.1 (≈ 0.205 µM) | 100 |
| Cc1c(SCCCSc2ccc3ncc([N+](=O)[O-])n3n2)ccnc1CO [Compound 1, {3-Methyl-4-[3-(3-nitroimidazo[1,2-b]pyridazin-6-ylsulfanyl)propylsulfanyl]pyridin-2-yl}methanol] | 0.05 (≈ 0.128 µM) | 100 |
| Cc1c(SCCCSc2ccc3ncc([N+](=O)[O-])n3n2)ccnc1CSc1ncccn1 [Compound 4, 6-{3-[3-Methyl-2-(pyrimidin-2-ylsulfanylmethyl)-pyridin-4-ylsulfanyl]propyisulfanyl)3-nitro-imidazo[1,2-b]pyridazine] | 0.1 (≈ 0.206 µM) | 100 |
| CN(CCOc1ccc2ncc([N+](=O)[O-])n2n1)c1ccnc(CSc2nc3ccccc3[nH]2)c1Cl.Cl [Compound 27, [2-(1H-benzimidazol-2-ylsulfanylmethyl)-3-chloropyridin-4-yl]-methyl-[2-(3-nitroimidazo[1,2-b]pyridazin-6-yloxy)-ethyl]amine hydrochloride] | 0.1 | 100 |
| Cc1c(OCCCOc2ccc3ncc([N+](=O)[O-])n3n2)cc[n+]([O-])c1C [Compound 13, 6-[3-(2,3-Dimethyl-1-oxypyridin-4-yloxy)propoxy]-3-nitroimidazo[1,2-b]pyridazine] | 0.5 (≈ 1.39 µM) | 100 |
| Cc1c(OCCCSc2ccc3ncc([N+](=O)[O-])n3n2)ccnc1CO [Compound 15, {3-Methyl-4-[3-(3-nitroimidazo[1,2-b]pyridazin-6-ylsulfanyl)propoxy]pyridin-2-yl}-methanol] | 0.05 (≈ 0.133 µM) | 100 |
| CN(CCSc1ccc2ncc([N+](=O)[O-])n2n1)c1ccnc(CSc2nc3ccccc3[nH]2)c1Cl [Compound 17] | 0.1 (≈ 0.19 µM) | 100 |
| COCCOCCSCc1nccc(SCCCSc2ccc3ncc([N+](=O)[O-])n3n2)c1C [Compound 9, 6-(3-}2-[2-(2-Methoxyethoxy)ethylsulfanylmethyl]-3-methylpyridin-4-ylsulfanyl}-propylsulfanyl)-3-nitroimidazo[1,2-b]pyridazine fumarate] | 0.1 | 100 |
